Assay results taken from patent US7807663B2, “Therapeutic agents for diabetes” (Ajinomoto Co., Inc., priority 2003, dated 2010).
Converted amounts (≈) assume the structure as drawn.

Tests used:
[1] = system: adipose cells of rats; assay: Evaluation of the sugar transportation activity (2-[14C(U)]-deoxy-D-glucose incorporation); format: cell-based, Wistar rats; conditions: concentration with reinforcing effect of 50% of that of insulin (100 nM) = 100%; rat adipose cells, 30 min pre-culture at 37° C., 5 min uptake
Method in brief: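 Collagenase-isolated epididymal adipocytes from male Wistar rats in 2% BSA/KRH (pH 7.6) preincubated with compound 30 min at 37 °C, then pulsed with 2-[14C(U)]-deoxy-D-glucose (0.5 μCi/sample) 5 min; uptake stopped with 10 μM cytochalasin B, cells separated through dinonyl phthalate and counted by scintillation. EC50 (μg/mL) = concentration giving 50% of the 100 nM insulin effect.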

[2] = system: GK rats; assay: Combinational effect with insulin secretagogue (gliclazide) using GK rats (Example 2); format: in vivo; conditions: combined with gliclazide, compared with alone groups, same experiment as Example 1
Protocol: The compound (II) (100 mg/kg) was orally administered to C57BL/6NCrj mice (11 week age, male) and soon after that, gliclazide (3 mg/kg) was orally administered. After administration, the blood was taken from their caudal veins over time to determine the blood glucose level. Area under the curve of blood glucose level changes until 70 minutes after the administration was set as an index and variations from a control group (Vehicle administered group) were compared.
The same experiment is conducted as that of Example 1 except that the compounds of the Compound Nos. 6, 8, 62, 80, 81, 88, 91, […], 105, 106, 129, 130, 131 and 132 in Tables 1 and 2 are used instead of the compound (II), and GK rats are used instead of normal mice.

[3] = system: C57BL/KsJ-db/bdJcl mice; assay: Combinational effect with biguanide (metformin) using db/db mice (Example 3); format: in vivo; conditions: compound 30 mg/kg oral combined with metformin 100 mg/kg oral, compared with alone groups
Protocol: FIG. 2 is a chart showing a combinational effect of the compound (III) and metformin in Example 3 (average value+standard deviation, each group N=6).
The compound (III) of the Compound No. 98 in above Table 1, which is indicated by the following structural formula, was used for the investigation. The compound is that described as Example 131 in WO02/44180 and synthesized in accordance with the method described in the international publication.
The compound (III) (30 mg/kg) was orally administered to C57BL/KsJ-db/bdJcl mice (10 week age, male) and soon after that, metformin (100 mg/kg) was orally administered. 60 minutes after administration, the blood was taken from their caudal veins to determine the blood glucose level.

[4] = system: C57BL/KsJ-db/bdJcl mice; assay: Combinational effect with glitazone (pioglitazone) using db/db mice, oral glucose load (Examples 5 and 6); format: in vivo; conditions: single oral administration combined with pioglitazone 10 mg/kg/day oral for 10 days, compared with alone groups
Protocol: The oral glucose load experiments are conducted using C57BL/KsJ-db/bdJcl mice in the conditions with or without the oral administeration of pioglitazone (10 mg/kg/day) for 10 days and with or without a single oral administration of the compound (III).
The same experiment is conducted as that of Example 5 except that the compounds of the Compound Nos. 6, 8, 62, 80, 81, 88, 91, 96, 105, 106, 129, 130, 131 and 132 in Tables 1 and 2 are used instead of the compound (III).

[5] = system: C57BL/KsJ-db/bdJcl mice; assay: Combinational effect with insulin using db/db mice (Examples 7 and 8); format: in vivo; conditions: combined with insulin 0.2 U/kg, compared with alone groups, same experiment as Example 3
Protocol: The compound (III) (30 mg/kg) was orally administered to C57BL/KsJ-db/bdJcl mice (10 week age, male) and soon after that, metformin (100 mg/kg) was orally administered. 60 minutes after administration, the blood was taken from their caudal veins to determine the blood glucose level. The same experiment is conducted as that of Example 3 except that insulin (0.2 U/kg) is used instead of metformin. […] The same experiment is conducted as that of Example 7 except that the compounds of the Compound Nos. 6, 8, 62, 80, 81, 88, 91, 96, 105, 106, 129, 130, 131 and 132 in Tables 1 and 2 are used instead of the compound (III).

CCc1ccccc1[C@@H]1C2=C(CNC2=O)N[C@@H]2CCCC[C@H]2N1C(C)=O [Compound 98]
EC50 [1]: 4 µg/mL (≈ 11.3 µM)
hypoglycemic action (blood glucose level) [2]: remarkable hypoglycemic action
hypoglycemic action (blood glucose level 60 minutes after administration) [3]: remarkable hypoglycemic action
hypoglycemic action (oral glucose load) [4]: remarkable hypoglycemic action
hypoglycemic action (blood glucose level) [5]: remarkable hypoglycemic action
